Values of other authors, collected in US7989007B2, “Weight loss composition” (Vincent James Enterprises, LLC, priority 2007, dated 2011).

Details: subjects treated for hypertension; similar degree of hypertension control

weight gain compared to patients treated with captopril: twice the weight gain
SMILES: CC(C)NCC(O)COc1ccc(CC(N)=O)cc1 (stereo not shown) [atenolol]
